Reference: article PMC8535469, “Insight into the Binding and Hydrolytic Preferences of hNudt16 Based on Nucleotide Diphosphate Substrates” (International Journal of Molecular Sciences, 2021)
Where two headings read alike, the source gives them in different places.

Columns and labels:
wild-type hNudt16 = biological target: T1, wild-type hNudt16 (Homo sapiens, UniProt Q96DE0); experiment: Thermal stability of wild-type hNudt16 with ligands, nanoDSF; type: binding; conditions: 20 mM MgCl2, same conditions as E76Q
T1 construct: 4xHis (four added histidines); made in house
T1 sequence (Q96DE0 whole entry): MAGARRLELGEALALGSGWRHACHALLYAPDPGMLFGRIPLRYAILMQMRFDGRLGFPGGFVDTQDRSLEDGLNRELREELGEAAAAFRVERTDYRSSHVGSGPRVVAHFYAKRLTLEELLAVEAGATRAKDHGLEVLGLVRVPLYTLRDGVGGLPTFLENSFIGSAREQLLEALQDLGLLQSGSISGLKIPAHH
Method: This allow us to conclude that there is no negative effect of the mutation on protein stabilization by studied compounds.
Protein thermal stability in the presence of various ligands was measured using two DSF methods: assays with SYPRO orange dye and dye-free assays. DSF assays with SYPRO orange dye were performed at specific ligand concentrations for each protein–ligand pair. This measurement was performed as described in Section 4.6.1, with a constant MgCl2 concentration of 20 mM and a concentration of the tested ligand maintained at 0.5 mM. DSF dye-free measurements were performed using a Prometheus NT.48 nanoDSF device (NanoTemper Technologies, München, Germany). The composition of the samples was identical to that in the DSF with SYPRO orange dye measurements, without the addition of any dye. The conditions during measurements were as follows: 5 µM protein, 20 mM MgCl2, 10 mM HEPES pH 7.9, 150 mM NaCl, 5% glycerol, 1 mM TCEP, and 0.5 mM ligand. The measurements were performed at a single ligand concentration for all ligands. After 10 min of pre-incubation, the samples were loaded into standard capillaries (NanoTemper Technologies, München, Germany). During the measurement, the samples were heated in a temperature range of 20–95 °C at a rate of 1 °C/min, and the measurements were performed with an excitation power of 30%. All of the collected data measured with using the above two DSF methods were analyzed according to the two-state transition numerical model described previously, using the Marquardt algorithm implemented in the Origin 2019 package (OriginLab, Northampton, MA, USA). We fitted the melting temperatures (Tm) globally for at least three independent experiments (but separately for different DSF methods).

hNudt16E76Q [1] = biological target: T2, hNudt16E76Q (Homo sapiens, UniProt Q96DE0, E76Q); experiment: Thermal stability of hNudt16E76Q with ligands, dye-free nanoDSF; type: binding; conditions: for Tm, nanoDSF (Dye-Free) / ∆Tm, nanoDSF (Dye-Free): 5 µM hNudt16E76Q, 20 mM MgCl2, 0.5 mM ligand; for ∆Tm, nanoDSF (Dye-Free): relative to apo
T2 construct: 4xHis (four added histidines); made in house; host or cells: E. coli Rosetta 2 (DE3), pET16b
T2 sequence (Q96DE0 whole entry E76Q): as the sequence (Q96DE0 whole entry) above, with E76Q counted along it
Method: (§1) Protein thermal stability in the presence of various ligands was measured using two DSF methods: assays with SYPRO orange dye and dye-free assays. DSF assays with SYPRO orange dye were performed at specific ligand concentrations for each protein–ligand pair. This measurement was performed as described in Section 4.6.1, with a constant MgCl2 concentration of 20 mM and a concentration of the tested ligand maintained at 0.5 mM. DSF dye-free measurements were performed using a Prometheus NT.48 nanoDSF device (NanoTemper Technologies, München, Germany). The composition of the samples was identical to that in the DSF with SYPRO orange dye measurements, without the addition of any dye. […] The measurements were performed at a single ligand concentration for all ligands. After 10 min of pre-incubation, the samples were loaded into standard capillaries (NanoTemper Technologies, München, Germany). […] We fitted the melting temperatures (Tm) globally for at least three independent experiments (but separately for different DSF methods).

hNudt16E76Q [2] = biological target: T2, hNudt16E76Q; experiment: Thermal stability of hNudt16E76Q with ligands, DSF with SYPRO Orange; type: binding; conditions: 5 µM hNudt16E76Q, 20 mM MgCl2, 0.5 mM ligand, 4× SYPRO Orange; for ∆Tm, DSF (with SYPRO Orange): relative to apo
Method: The protein thermal stability of wild-type hNudt16 and all tested mutants in the presence of increasing Mg^2+ ion concentration was measured using DSF with SYPRO orange dye on CFX RT-PCR (Bio-Rad, Hercules, CA, USA). This method is based on the change in fluorescence of the SYPRO orange dye in an aqueous buffer, which is strongly quenched, while its binding to the exposed hydrophobic regions of thermally unfolded protein results in an increased fluorescence. The optimal concentrations of protein, SYPRO orange dye, and buffer composition, in particular ion content, were determined. The samples were prepared and measured in clear 96-well multiplate PCR plates for RT-PCR (Bio-Rad, Hercules, CA, USA). […] The individual components of the solution were added in equal volumes to each well, with a final sample volume of 25 μL/well. The samples were gently mixed, and the 96-well plate was covered with optically clear PCR sealing tape (Bio-Rad, Hercules, CA, USA) to prevent evaporation. […] The data processing procedure was performed using Bio-Rad CFX Manager (version 1.6.541.1028), and melting point temperatures were calculated as the minimum of the first derivative plot.
as §1

hNudt16 [3] = biological target: T3, hNudt16 (Homo sapiens, UniProt Q96DE0); experiment: Enzymatic hydrolysis catalyzed by hNudt16, products quantified by HPLC; type: biochemical; design: 4xHis (four added histidines); made in house; conditions: 20 µM substrate, 37 °C; for Hydrolysis Products / Hydrolysis Rate, v/[E]0 (hydrolyzed substrate per minute per [enzyme] µM) / Hydrolysis Rate, v/µg (hydrolyzed substrate per minute per enzyme µg): pH 7.9, 6 mM MgCl2, nd = hydrolysis products not detected
T3 sequence (Q96DE0 whole entry): as the sequence (Q96DE0 whole entry) above
Method: Enzymatic hydrolysis catalyzed by hNudt16 was performed at 37 °C in 40 mM Tris buffer (pH 7.9) containing 100 mM NaCl, 6 mM MgCl2, and 2 mM DTT. The concentration of the investigated dinucleotides and mononucleotides was 20 µM in the reaction mixture.
(§2) The hydrolytic susceptibility of the compounds was studied using HPLC. Before each experiment, 1 mL of buffer solution containing the analyte was incubated at 37 °C for 10 min. The hydrolysis process was initiated by the addition of hNudt16. To analyze the reaction progress, 200-µL aliquots of the reaction mixture were withdrawn and incubated at 96 °C for 5 min to stop the reaction through heat inactivation of the enzyme. The samples were then subjected to an HPLC system (Agilent 1200 series, Agilent Technologies, California, USA) with a reverse-phase Supelcosil LC-18-T column and UV/VIS detector. The substrates and hydrolysis products were eluted at 20 °C with a linear gradient of methanol in 0.1 M KH2PO4 (from 0% to 40%) over 15 min at a flow rate of 1.0 mL/min. Changes in the absorbance at 260 nm were continuously monitored during the analysis. Hydrolysis products were identified by comparing their retention times with those of the reference samples. The extent of decapping, determined as the percentage of the hydrolyzed substrate, was calculated using the area under the chromatographic peak of the respective compounds.

hNudt16 EE-KK = biological target: T4, hNudt16 EE-KK (Homo sapiens, UniProt Q96DE0, E79K/E80K); experiment: Hydrolytic properties of EE-KK mutant tested by HPLC; type: biochemical
T4 construct: 4xHis (four added histidines); made in house; host or cells: E. coli Rosetta 2 (DE3), pET16b
T4 sequence (Q96DE0 whole entry E79K/E80K): as the sequence (Q96DE0 whole entry) above, with E79K, E80K counted along it
Method: as §2

hNudt16E76Q [4] = biological target: T2, hNudt16E76Q; experiment: Microscale thermophoresis (MST) binding, two independent binding sites model; conditions: for ΔGdiss1 (for Kd1): calculated as −RTlnKd from MST Kd1; for ΔGdiss2 (for Kd2): calculated as −RTlnKd from MST Kd2
Method: Binding constants for protein–ligand pairs were established using the MST method. The hNudt16 E76Q was labeled with RED-tris-NTA 2nd Generation dye (Monolith HIS-tag labeling Kit, NanoTemper Technologies, München, Germany) according to the manufacturer’s instructions. Measurements were carried out in a wide range of ligand concentrations, selected after preliminary tests for each of the ligands. The results obtained were used to determine of binding parameters for a given ligand. Each MST measurement consisted of a series of 16 serial 1:2 dilutions of the ligand, and was performed at a constant dye-labeled protein concentration of 50 nM. After 10 min of pre-incubation, dye-labeled protein–ligand samples were manually loaded into Monolith™ NT.115 Premium Capillaries (NanoTemper Technologies, München, Germany) and analyzed using the Monolith NT.115 (NanoTemper Technologies). […] Analysis was performed using Origin package (OriginLab, Northampton, MA, USA) and dissociation constants were fitted globally for a series of at least six MST pseudo-titration experiments for each ligand. Up to 10 replicates were performed for some ligands.
For the dissociation constants obtained, we also calculated the free energy associated with the dissociation of the complex ΔGdiss according to the equation: ΔGdiss=−RTlnKd.

hNudt16E76Q [5] = biological target: T2, hNudt16E76Q; experiment: Hydrolytic properties of E76Q mutant tested by HPLC; type: biochemical
Method: as §2

hNudt16 EE-QQ = biological target: T5, hNudt16 EE-QQ (Homo sapiens, UniProt Q96DE0, E79Q/E80Q); experiment: Hydrolytic properties of EE-QQ mutant tested by HPLC; type: biochemical
T5 construct: 4xHis (four added histidines); made in house; host or cells: E. coli Rosetta 2 (DE3), pET16b
T5 sequence (Q96DE0 whole entry E79Q/E80Q): as the sequence (Q96DE0 whole entry) above, with E79Q, E80Q counted along it
Method: as §2

hNudt16 [6] = biological target: T3, hNudt16; conditions: cited from earlier work
[7] = second, weaker binding site, read-out: Kd2
[8] = stronger binding site, 50 nM dye-labeled protein, read-out: Kd1

Row | Molecule | Tm, wild-type hNudt16, nanoDSF (wild-type hNudt16) | ΔTm, wild-type hNudt16, nanoDSF (wild-type hNudt16) | Tm, nanoDSF (Dye-Free) (hNudt16E76Q [1]) | ∆Tm, nanoDSF (Dye-Free) (hNudt16E76Q [1]) | Tm, DSF (with SYPRO Orange) (hNudt16E76Q [2]) | ∆Tm, DSF (with SYPRO Orange) (hNudt16E76Q [2]) | Hydrolysis Products (hNudt16 [3]) | Hydrolysis Rate, v/[E]0 (hydrolyzed substrate per minute per [enzyme] µM) (hNudt16 [3]) | Hydrolysis Rate, v/µg (hydrolyzed substrate per minute per enzyme µg) (hNudt16 [3]) | Hydrolytic activity of EE-KK mutant (hNudt16 EE-KK) | ΔTm relative to the apo form, both DSF and nanoDSF (hNudt16E76Q [1]; 0.5 mM ligand, stated for both types of measurements) | ΔGdiss1 (for Kd1) (hNudt16E76Q [4]) | ΔGdiss2 (for Kd2) (hNudt16E76Q [4]) | Kd (hNudt16E76Q [4]; [7]) | Kd (hNudt16E76Q [4]; [8]) | Hydrolytic activity of E76Q mutant (hNudt16E76Q [5]) | Hydrolytic activity of EE-QQ mutant (hNudt16 EE-QQ) | Susceptibility to hydrolysis by hNudt16 (in words) (hNudt16 [3]; HPLC) | Km (hNudt16 [6])
1 | Nc1nc2c(ncn2[C@@H]2O[C@H](COP(=O)(O)O)[C@@H](O)[C@H]2O)c(=O)[nH]1 [GMP, Guanosine monophosphate] | 70.8 ± 0.1 °C | 3.5 ± 0.1 °C | 69.1 ± 0.1 °C | 4.0 ± 0.1 °C | 68.0 ± 0.1 °C | 4.3 ± 0.1 °C | – | – | – | – | – | – | – | – | – | – | – | – | –
2 | Nc1nc2c(ncn2[C@@H]2O[C@H](COP(=O)(O)OP(=O)(O)OC[C@H]3O[C@@H](n4cnc5c(=O)[nH]c(N)nc54)[C@H](O)[C@@H]3O)[C@@H](O)[C@H]2O)c(=O)[nH]1 [GppG] | – | – | 83.1 ± 0.1 °C | 18.0 ± 0.1 °C | 81.2 ± 0.1 °C | 17.5 ± 0.1 °C | GMP | 5454.5 ± 436.3 µM/min/[E]0 | 227.27 ± 18.25 µM/min/µg | none of the mutants exhibited hydrolytic activity | 17.5–18.0 °C | 9.708 kcal/mol | 7.89 kcal/mol | 1600 ± 400 nM | 73 ± 23 nM | none of the mutants exhibited hydrolytic activity | none of the mutants exhibited hydrolytic activity | – | –
3 | C[n+]1cn([C@@H]2O[C@H](COP(=O)([O-])OP(=O)(O)OC[C@H]3O[C@@H](n4cnc5c(=O)[nH]c(N)nc54)[C@H](O)[C@@H]3O)[C@@H](O)[C@H]2O)c2nc(N)[nH]c(=O)c21 [m^7GppG] | – | – | 80.2 ± 0.1 °C | 15.2 ± 0.1 °C | 78.2 ± 0.1 °C | 14.4 ± 0.1 °C | m^7GMP + GMP | 722.6 ± 68.6 µM/min/[E]0 | 30.11 ± 2.81 µM/min/µg | – | – | 9.063 kcal/mol | 6.154 kcal/mol | 30200 ± 2500 nM | 220 ± 87 nM | none of the mutants exhibited hydrolytic activity | – | – | –
4 | Adenosine diphosphate ribose [ADPr] | 68.1 ± 0.1 °C | 0.9 ± 0.1 °C | 66.0 ± 0.1 °C | 0.9 ± 0.1 °C | 63.6 ± 0.1 °C | −0.1 ± 0.1 °C | – | – | – | – | – | – | ≤2.32 kcal/mol | – | – | – | – | resistant to hydrolytic cleavage | ~1000 µM
